From patent publication US20250242064A1, “CXCR4-TARGETING COMPOUNDS, AND METHODS OF MAKING AND USING THE SAME” (PROVINCIAL HEALTH SERVICES AUTHORITY, priority 2022, published 2025)
Where a SMILES comes first, the peptide text is derived from it. Bridges are numbered along the chain shown (N, C = ends). Side-chain parts run from the residue outwards. [ ]: non-standard residue; d: D form. The star is where a group is joined. X5 = O=C(O)CN1CCN(CC(=O)O)CCN(CC(=O)N[C@@H](CS(=O)(=O)O)C(=O)N[C@@H](CCCCNC(=O)CCCc2ccc(Cl)cc2)C(=O)*)CCN(CC(=O)O)CC1; X7 = COc1ccc(CCCC(=O)NCCCC[C@H](NC(=O)CN2CCN(CC(=O)O)CCN(CC(=O)O)CCN(CC(=O)O)CC2)C(=O)*)cc1; DOTA = O=C(O)CN1CCN(CC(=O)O)CCN(CC(=O)*)CCN(CC(=O)O)CC1; NMeLys(iPr) = CN[C@@H](CCCCNC(C)C)C(=O)O; 2Nal = N[C@@H](Cc1ccc2ccccc2c1)C(=O)O; Lys(iPr) = CC(C)NCCCC[C@H](N)C(=O)O; Cya = N[C@@H](CS(=O)(=O)O)C(=O)O

Assay: in vivo
Design: species or system mice
Conditions: male, NOD.Cg-Rag1tm1Mom Il2rgtm1Wjl/SzJ (NRG), mouse, iv, total radioactivity
Description: The Z138 Mantle cell lymphoma cell line was purchased from the American Type Culture Collection (ATCC©CRL-3001). The cell line was cultured in a 5% CO2 atmosphere at 37° C. in a humidified incubator with IMDM medium supplemented with 10% fetal bovine serum, 100 I.U./mL penicillin, and 100 μg/mL streptomycin.
[^68Ga]GaCl3 was eluted from an iThemba Labs generator with a total of 4 mL of 0.1 M HCl. The eluted [^68Ga]GaCl3 solution was added to 2 mL of concentrated HCl. This radioactive mixture was then added to a DGA resin column and washed with 3 mL of 5 M HCl. The column was then dried with air and the [^68Ga]GaCl3 (0.10-0.50 GBq) was eluted with 0.5 mL of water into a vial containing a solution of the unlabeled precursor (25 μg) in 0.7 mL HEPES buffer (2 M, pH 5.3). The reaction mixture was heated in a microwave oven (Danby; DMW7700WDB) for 1 min at power setting 2. The mixture was purified by semi-prep HPLC and quality control was performed via analytical HPLC with the co-injection of the unlabeled standard with a one-twelfth of the radiotracer. Radiochemical yields (decay-corrected) were >50% and radiochemical purities were >95%.
Animal experiments were performed in accordance with guidelines established by the Canadian Council on Animal Care, under a research protocol approved by the Animal Ethics Committee of the University of British Columbia. For all studies, male NOD.Cg-Rag1tm1Momll2rgtm1Wjl/SzJ (NRG) mice were used and cells injected in a 100 μL solution of 1:1 ratio of PBS/Matrigel. For preclinical imaging and biodistribution studies, 5×10^6 cells of Z138, cells were subcutaneously inoculated on the left or right flank and tumors were grown to a size of 200-300 mm^3. […]
Under isoflurane anesthesia (2-2.5% isoflurane in 2 L/min 02), mice were injected intravenously with [^68Ga]Ga-BL34L6 or [^68Ga]Ga-BL34L7. Mice were euthanized by CO2 inhalation after anesthesia with isoflurane. Tissues were harvested, washed in PBS, patted dry, weighed, and then assayed radioactivity on a gamma counter. Counted radioactivities were converted to percentage injected dose per gram of tissue (% ID/g) using a calibration curve.

[1] = Biodistribution: Small Intestine

| tissue uptake at 1 h (Biodistribution: Adrenals) | tissue uptake at 1 h (Biodistribution: Blood) | tissue uptake at 1 h (Biodistribution: Bone) | tissue uptake at 1 h (Biodistribution: Brain) | tissue uptake at 1 h (Biodistribution: Heart) | tissue uptake at 1 h (Biodistribution: Kidneys) | tissue uptake at 1 h (Biodistribution: Liver) | tissue uptake at 1 h (Biodistribution: Lungs) | tissue uptake at 1 h (Biodistribution: Muscle) | tissue uptake at 1 h (Biodistribution: Pancreas) | tissue uptake at 1 h [1] | tissue uptake at 1 h (Biodistribution: Spleen) | tissue uptake at 1 h (Biodistribution: Stomach) | tissue uptake at 1 h (Biodistribution: Testes) | tissue uptake at 1 h (Biodistribution: Z138 Tumor) | tissue to tissue ratio at 1 h (Ratio Tumor-to-Blood) | tissue to tissue ratio at 1 h (Ratio Tumor-to-Bone) | tissue to tissue ratio at 1 h (Ratio Tumor-to-Kidney) | tissue to tissue ratio at 1 h (Ratio Tumor-to-Muscle) | tissue to tissue ratio at 1 h (Ratio Tumor-to-Pancreas) | SMILES | other results |
| --- | --- | --- | --- | --- | --- | --- | --- | --- | --- | --- | --- | --- | --- | --- | --- | --- | --- | --- | --- | --- | --- |
| 0.29 %ID/g | 0.83 %ID/g | 0.14 %ID/g | 0.01 %ID/g | 0.22 %ID/g | 2.07 %ID/g | 1.6 %ID/g | 0.99 %ID/g | 0.12 %ID/g | 0.12 %ID/g | 0.24 %ID/g | 0.45 %ID/g | 0.05 %ID/g | 0.26 %ID/g | 8.92 %ID/g | 11.6 | 66.5 | 4.36 | 84.6 | 75.3 | COc1ccc(CCCC(=O)NCCCC[C@H](NC(=O)CN2CCN(CC(=O)O)CCN(CC(=O)O)CCN(CC(=O)O)CC2)C(=O)N[C@@H](CS(=O)(=O)O)C(=O)NCCCC[C@@H]2NC(=O)CC[C@H](C(=O)N[C@@H](CCCCNC(C)C)C(N)=O)NC(=O)[C@@H](C)NC(=O)[C@H](Cc3ccc4ccccc4c3)NC(=O)[C@@H](CCCNC(=N)N)NC(=O)[C@H](CCCCNC(C)C)NC(=O)[C@H](Cc3ccc(O)cc3)NC2=O)cc1 [[68Ga]Ga-BL34L6, metal not drawn] (K([Cya-X7])Y[Lys(iPr)][dR][2Nal][dA][dE][Lys(iPr)]-NH2; lactam N-7) |  |
| 0.17 %ID/g | 0.32 %ID/g | 0.13 %ID/g | 0.02 %ID/g | 0.12 %ID/g | 2.7 %ID/g | 0.71 %ID/g | 0.44 %ID/g | 0.09 %ID/g | 0.08 %ID/g | 0.19 %ID/g | 0.26 %ID/g | 0.05 %ID/g | 0.18 %ID/g | 12 %ID/g | 37.7 | 92.2 | 4.6 | 157 | 146 | CC(C)NCCCC[C@H](NC(=O)[C@H]1CCC(=O)N[C@@H](CCCCNC(=O)[C@H](CS(=O)(=O)O)NC(=O)CN2CCN(CC(=O)O)CCN(CC(=O)O)CCN(CC(=O)O)CC2)C(=O)N[C@@H](Cc2ccc(O)cc2)C(=O)N(C)[C@@H](CCCCNC(C)C)C(=O)N[C@H](CCCNC(=N)N)C(=O)N[C@@H](Cc2ccc3ccccc3c2)C(=O)N[C@H](C)C(=O)N1)C(N)=O [[^68Ga]Ga-BL34N1, metal not drawn] (K([Cya-DOTA])Y[NMeLys(iPr)][dR][2Nal][dA][dE][Lys(iPr)]-NH2; lactam N-7) |  |
| 1.63 %ID/g | 7.27 %ID/g | 2.65 %ID/g | 0.11 %ID/g | 1.66 %ID/g | 3.56 %ID/g | 2.61 %ID/g | 5.9 %ID/g | 0.61 %ID/g | 0.76 %ID/g | 0.86 %ID/g | 2.48 %ID/g | 0.26 %ID/g | 1.16 %ID/g | 10.1 %ID/g | 1.38 | 6.11 | 2.83 | 16.8 | 13.6 | CC(C)NCCCC[C@H](NC(=O)[C@H]1CCC(=O)N[C@@H](CCCCNC(=O)[C@H](CCCCNC(=O)CCCc2ccc(Cl)cc2)NC(=O)[C@H](CS(=O)(=O)O)NC(=O)CN2CCN(CC(=O)O)CCN(CC(=O)O)CCN(CC(=O)O)CC2)C(=O)N[C@@H](Cc2ccc(O)cc2)C(=O)N[C@@H](CCCCNC(C)C)C(=O)N[C@H](CCCNC(=N)N)C(=O)N[C@@H](Cc2ccc3ccccc3c2)C(=O)N[C@H](C)C(=O)N1)C(N)=O [[^68Ga]Ga-BL34L16, metal not drawn] (K(X5)Y[Lys(iPr)][dR][2Nal][dA][dE][Lys(iPr)]-NH2; lactam N-7) | tissue uptake at 3 h (Biodistribution: Adrenals): 0.7 %ID/g; tissue uptake at 3 h (Biodistribution: Blood): 2.7 %ID/g; tissue uptake at 3 h (Biodistribution: Bone): 2.01 %ID/g; tissue uptake at 3 h (Biodistribution: Brain): 0.06 %ID/g; tissue uptake at 3 h (Biodistribution: Heart): 0.67 %ID/g; tissue uptake at 3 h (Biodistribution: Kidneys): 2.2 %ID/g; tissue uptake at 3 h (Biodistribution: Liver): 2.33 %ID/g; tissue uptake at 3 h (Biodistribution: Lungs): 2.85 %ID/g; tissue uptake at 3 h (Biodistribution: Muscle): 0.32 %ID/g; tissue uptake at 3 h (Biodistribution: Pancreas): 0.31 %ID/g; tissue uptake at 3 h [1]: 0.41 %ID/g; tissue uptake at 3 h (Biodistribution: Spleen): 2.05 %ID/g; tissue uptake at 3 h (Biodistribution: Stomach): 0.16 %ID/g; tissue uptake at 3 h (Biodistribution: Testes): 0.68 %ID/g; tissue uptake at 3 h (Biodistribution: Z138 Tumor): 15.2 %ID/g; tissue to tissue ratio at 3 h (Ratio Tumor-to-Blood): 5.74; tissue to tissue ratio at 3 h (Ratio Tumor-to-Bone): 19.3; tissue to tissue ratio at 3 h (Ratio Tumor-to-Kidney): 6.92; tissue to tissue ratio at 3 h (Ratio Tumor-to-Muscle): 50.4; tissue to tissue ratio at 3 h (Ratio Tumor-to-Pancreas): 50.7 |
